The supplement of paper PMC10307832

Legend:
Experiment in all cases: relative viability (nuclei count vs DMSO), 5 days (fraction); higher = more cells survive
[1] = compound: C1CNCCC1C2=CC(=NN2)C3=CC=NC=C3 + COc1cccc2cc(-c3nc([C@H]4CC[C@H](C(=O)O)CC4)n4ncnc(N)c34)[nH]c12 [OSI-027] (partner 0.5 µM)
How it was run: (§1)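 Five library-drug doses in √10 steps were combined with a fixed anchor-drug dose, or a single drug was given alone, by pin tool to lung cancer cell lines in 1536-well plates the day after seeding. Nuclei were stained and counted after 5 days. Relative viability is the nuclei count in treated wells over that in vehicle wells, taken as the median of duplicate plates.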

[2] = compound: C1CNCCC1C2=CC(=NN2)C3=CC=NC=C3 + Nc1ncn([C@H]2C[C@H](O)[C@@H](CO)O2)c(=O)n1 [Decitabine] (partner 2 µM)
How it was run: as §1

[3] = compound: C[C@@H](N)c1ccc(C(=O)Nc2ccnc3[nH]ccc23)cc1 + Nc1ncn([C@H]2C[C@H](O)[C@@H](CO)O2)c(=O)n1 [Decitabine] (partner 2 µM)
How it was run: as §1

Tanzisertib + Foretinib = compound: O[C@H]1CC[C@H](Nc2ncc3nc(Nc4c(F)cc(F)cc4F)n([C@H]4CCOC4)c3n2)CC1 [Tanzisertib] + COc1cc2c(Oc3ccc(NC(=O)C4(C(=O)Nc5ccc(F)cc5)CC4)cc3F)ccnc2cc1OCCCN1CCOCC1 [Foretinib] (partner 0.25 µM)
How it was run: as §1

| Cell Line | relative viability ([1]; first compound 0.08 µM) | relative viability ([1]; first compound 0.8 µM) | relative viability ([1]; first compound 2.53 µM) | relative viability ([1]; first compound 8 µM) | relative viability ([2]; first compound 0.08 µM) | relative viability ([2]; first compound 0.8 µM) | relative viability ([2]; first compound 2.53 µM) | relative viability ([2]; first compound 8 µM) | relative viability ([3]; first compound 0.04 µM) | relative viability ([3]; first compound 0.1265 µM) | relative viability ([3]; first compound 0.4 µM) | relative viability ([3]; first compound 4 µM) | relative viability (Tanzisertib + Foretinib; first compound 0.08 µM) | relative viability (Tanzisertib + Foretinib; first compound 0.253 µM) | relative viability (Tanzisertib + Foretinib; first compound 0.8 µM) | relative viability (Tanzisertib + Foretinib; first compound 2.53 µM) | relative viability (Tanzisertib + Foretinib; first compound 8 µM) | relative viability ([3]; first compound 1.265 µM) |
| --- | --- | --- | --- | --- | --- | --- | --- | --- | --- | --- | --- | --- | --- | --- | --- | --- | --- | --- |
| EPLC-272H | 0.279 | 0.348 | 0.318 | 0.292 | 0.372 | 0.385 | 0.389 | 0.365 | 0.461 | 0.41 | 0.481 | 0.492 | 0.737 | 0.692 | 0.714 | 0.65 | 0.666 |  |
| H3255 | 0.52 | 0.629 | 0.577 | 0.759 | 0.532 |  | 0.674 | 0.587 | 0.603 | 0.747 | 0.67 | 0.481 | 0.729 | 0.77 | 0.831 | 0.841 | 0.696 | 0.67 |
| HARA | 0.552 | 0.524 | 0.627 | 0.404 | 0.471 | 0.524 | 0.762 | 0.432 | 0.54 | 0.672 | 0.52 | 0.401 | 0.817 | 0.925 | 0.86 | 0.889 | 0.74 | 0.611 |
| HCC-15 | 0.677 | 0.682 | 0.694 | 0.693 | 0.652 | 0.793 | 0.587 | 0.621 | 0.698 | 0.613 | 0.623 | 0.514 | 1.13 | 1.05 | 1.11 | 1.02 | 1.08 | 0.612 |
| HCC-78 | 0.344 | 0.359 | 0.354 | 0.383 | 0.677 |  | 0.637 | 0.743 | 0.772 | 0.782 | 0.83 | 0.62 | 0.545 | 0.614 | 0.584 | 0.583 | 0.585 | 0.725 |
| HCC-366 | 1.12 | 1.01 | 1.05 | 0.878 | 0.266 | 0.353 | 0.373 | 0.366 | 0.323 | 0.331 | 0.353 | 0.343 | 0.917 | 0.918 | 0.922 | 0.975 | 0.917 | 0.405 |
| HCC-827 | 0.666 | 0.673 | 0.806 | 0.782 | 0.294 | 0.302 | 0.297 | 0.336 |  | 0.33 | 0.379 | 0.331 | 1.13 | 1.1 | 1.07 | 0.814 | 0.389 | 0.227 |
| HOP-62 | 0.816 | 0.912 | 0.831 | 0.773 | 0.226 | 0.234 | 0.205 | 0.201 | 0.21 | 0.225 | 0.241 | 0.207 | 0.99 | 1.07 | 0.986 | 1.22 | 1.32 | 0.206 |
| LC-2-ad |  | 0.868 | 0.936 | 0.908 | 0.682 | 0.791 | 0.868 | 0.789 | 0.935 | 0.775 | 0.827 | 0.563 | 0.924 | 0.913 | 0.908 | 0.877 | 0.884 | 0.775 |
| LCLC-97TM1 | 0.57 | 0.508 | 0.519 | 0.531 | 0.232 | 0.283 | 0.214 | 0.262 | 0.254 | 0.263 | 0.249 | 0.304 | 0.928 | 0.945 | 0.89 | 0.854 | 0.946 | 0.218 |
| LCLC-103H | 0.432 | 0.485 | 0.447 | 0.457 | 0.767 | 0.735 | 0.755 | 0.642 | 0.652 | 0.69 | 0.724 | 0.652 | 0.79 | 0.784 | 0.806 | 0.71 | 0.765 | 0.716 |
| LK-2 | 0.264 | 0.284 | 0.223 | 0.209 |  | 0.237 | 0.404 | 0.358 | 0.351 | 0.287 | 0.359 | 0.352 | 1.26 | 1.01 | 1.11 | 1.03 | 1.46 | 0.237 |
| LOU-NH91 | 0.696 | 0.74 | 0.796 | 0.727 | 0.84 | 0.851 | 0.832 | 0.79 | 0.755 | 0.79 | 0.78 | 0.577 | 0.914 | 0.946 | 0.903 | 0.87 | 0.639 | 0.69 |
| LU99A | 0.292 | 0.291 | 0.331 | 0.304 | 0.857 | 0.982 | 0.919 | 0.842 |  | 1.03 | 0.824 | 0.598 | 0.828 | 0.81 | 0.798 | 0.765 | 0.837 | 0.773 |
| LXF-289 | 0.847 | 0.829 | 0.901 | 0.728 | 0.349 | 0.35 | 0.395 | 0.371 | 0.406 | 0.362 | 0.362 | 0.331 | 1.02 | 1.01 | 1.06 | 0.989 | 1.03 | 0.373 |
| NCI-H23 | 0.676 | 0.655 | 0.653 | 0.67 | 0.306 |  | 0.301 | 0.377 | 0.296 | 0.295 | 0.363 | 0.301 | 1.01 | 1.07 | 0.996 | 0.952 | 1.02 |  |
| NCI-H322M | 0.608 | 0.532 | 0.653 | 0.592 | 0.67 | 0.645 | 0.736 | 0.872 | 0.744 | 0.833 | 0.906 | 0.876 | 1.02 | 0.962 | 0.886 | 0.961 | 0.97 | 0.809 |
| NCI-H358 | 0.593 | 0.713 | 0.834 | 0.698 | 0.224 | 0.226 | 0.21 | 0.217 | 0.232 | 0.222 | 0.191 | 0.207 | 0.774 | 0.589 | 0.694 | 0.73 | 0.442 | 0.19 |
